Data taken from patent US4080471A, “Use of substituted isopropylaminopropanols for inducing inotropic effects of the human heart” (priority 1976, dated 1978).
Entries after “also recorded” stand apart in the source; their conditions may differ.

Experiments:
[1] = target: T1, beta-receptors of the heart (Felis catus, UniProt Q9TST6); experiment: Heart frequency increase before and after beta-blockade with Inderal; assay type: in vivo, cat; conditions: 0.01 mg/kg bodyweight i.v.
T1 construct: Heart frequency was registered with a cardiotachometer triggered by the ECG; from tissue; host or cells: heart of the anaesthetized cat in vivo (reserpine-pretreated, vagotomized)
T1 sequence (Q9TST6 whole entry): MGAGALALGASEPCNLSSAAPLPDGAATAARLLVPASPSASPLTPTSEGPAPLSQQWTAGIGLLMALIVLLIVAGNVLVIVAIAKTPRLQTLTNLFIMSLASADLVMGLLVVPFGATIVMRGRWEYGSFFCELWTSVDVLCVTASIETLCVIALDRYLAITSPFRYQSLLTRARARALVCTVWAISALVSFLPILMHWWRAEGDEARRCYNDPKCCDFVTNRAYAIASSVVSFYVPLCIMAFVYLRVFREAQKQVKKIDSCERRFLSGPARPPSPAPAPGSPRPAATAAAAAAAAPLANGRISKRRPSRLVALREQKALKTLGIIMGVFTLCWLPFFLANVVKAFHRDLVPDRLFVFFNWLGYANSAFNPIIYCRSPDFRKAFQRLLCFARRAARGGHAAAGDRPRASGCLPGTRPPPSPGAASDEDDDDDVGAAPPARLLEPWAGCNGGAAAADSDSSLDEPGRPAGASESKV
Protocol: (§1) When the cats had been anaesthetized with Mebumal® 30 mg/kg bodyweight i.p., an artificial air respiration was started. The two vagus nerves were cut and the blood passing through a femoral artery was fed via a catheter and a pump back to the distal part of the vessel. Parallelly, a pressure transducer was connected by which the perfusion pressure was registered. At a perfusion with a constant flow, the perfusion pressure is directly proportional to the peripheral resistance of the vascular bed of the hind limb. Blood circulation in the foot was interrupted with a ligature. Heart frequency was registered with a cardiotachometer triggered by the ECG. The substances were administered intravenously in increasing doses and the dose-response curves of the heart frequency and the vasodilatation were constructed.

[2] = target: T1, beta-receptors of the heart; experiment: Beta-adrenergic (chronotropic, heart frequency) effects on anesthetized cat pretreated with reserpine; assay type: in vivo
Protocol: (§2) Chronotropic (heart frequency) and vasodilatating effects:
as §1
(§3) Further, the dose ratios (ED50 for vasodilatation/ED50 for heart frequency) are calculated. A dose ratio >1 indicates a heart selective effect.

[3] = system: beta-receptors of the heart; experiment: as above; assay type: in vivo; conditions: dose ratio >1 indicates a heart selective effect
Protocol: as §2, §1, §3

heart = experiment: Ventricular arrhythmia in dogs after two-stage ligation of the left anterior coronary artery (third day post infarction); assay type: in vivo, dog
Protocol: Harris, A. S. Delayed Development of Ventricular Ectopic Rhythms following Coronary Occlusion, Cir. l, p 1318, (1950) described a method of two-stage ligation of the left anterior coronary artery in the dog. This method produces a multifocal ventricular arrhythmia that generally remains persistent on the first post ligation day (day 1-24 hours post infarct). The arrhythmia slowly disappears, and by the third post-ligation day the animal has essentially a normal sinus rhythm.
Maling, H. M. and Moran, N. C., Ventricular Arrhythmias Induced by Sympathominetic Amines in Unanesthetized Dogs Following Coronary Artery Occlussion, Cir.
METHODS, MATERIALS AND EXPERIMENTAL DESIGN
Seventeen adult female beagle dogs were used. Their ages ranged from one to three years. These animals were divided into two groups.
The first group consisted of 12 dogs and served as a control group. All animals were subjected to a two-stage ligation of the left anterior coronary artery. On the first post operative day these twelve animals were given various experimental antiarrhythmic agents as part of a routine testing procedure. It should be noted that, due to the nature of these agents, there would be no test drug or only trace amounts of test drug in the blood on day 3, and these amounts would cause little or no change on the outcome of a third day test. It should also be noted that all twelve of these animals has at least 85% ventricular ectopic beats on the morning after surgery in order to be accepted for testing.
On the third day post infarction the dogs were suspended in a standing position in a canvas sling. No anesthesia or sedation was used. ECGs were recorded as well as blood pressure. After a control period, an infusion of 20 μg/kg min. of 1-norepinephrine was begun using a Harvard infusion/withdrawal pump. This infusion lasted 120 minutes.
These five animals were all subjected to a two stage ligation of the anterior descending coronary artery. On day 1 and day 2 each dog was suspended in a canvas sling in the standing position and ECG, blood pressure, and other physiologic measurements were taken. […]

SMILES: CC(C)NCC(O)COc1ccc(O)cc1 (stereo not shown) [Compound I, 1-isopropylamino-3-(p-hydroxyphenoxy)-propanol-2]
- increase of heart frequency, given after Inderal ([1]; after 0.2 mg/kg i.v. Inderal): 10 beats/minute
- increase of heart frequency, given before Inderal ([1]; before Inderal, average): 60 beats/minute
- ED50 ([2]; cat, iv, read-out: ED50 Heart Frequency): 6 µg/kg
- potency relative to isoprenaline, chronotropic effect ([2]; isoprenaline = 1, cat i.v.): about 1/100
- Selectivity: ED50 Vasodilatation / ED50 Heart Frequency [3]: > 100
- ectopic activity in postdrug observation period (heart; 60 minutes after compound I infusion): essentially no ectopic activity
- arrhythmogenic effect (in words) (heart; compound I 1.0 mg/kg/min i.v. for twenty minutes, day 3 post infarct): not arrhythmogenic; also recorded: the few ectopic beats seen during the predrug control were slightly suppressed; also recorded: lacks arrhythmogenic properties
